According to EPA's ToxRefDB 2:

Assays:
[1] = system: rabbit; conditions: Sub-acute repeat dose toxicity, new zealand white, Oral, Gavage/Intubation, dose end: 5 day, group: systemic
[2] = system: rat; conditions: Sub-acute repeat dose toxicity, sprague dawley, Oral, Gavage/Intubation, dose end: 7 day, group: systemic
[3] = system: dog; conditions: Sub-acute repeat dose toxicity; beagle; Oral; Gavage/Intubation; dose end: 5 day; group: systemic; systemic / in life observation / clinical signs / abnormal feces
[4] = system: rat; conditions: Sub-acute repeat dose toxicity; sprague dawley; Oral; Gavage/Intubation; dose end: 14 day; group: systemic; systemic / clinical chemistry / 5' nucleotidase / 5' nucleotidase + systemic / clinical chemistry / alanine aminotransferase (alt/sgpt) / …
[5] = system: rat; conditions: Sub-acute repeat dose toxicity; sprague dawley; Oral; Gavage/Intubation; dose end: 4 day; group: systemic; systemic / in life observation / clinical signs / respiration (rales) + systemic / in life observation / mortality / mortality + systemic / …
[6] = system: dog; conditions: Sub-acute repeat dose toxicity, beagle, Oral, Gavage/Intubation, dose end: 5 day, group: systemic
[7] = system: rabbit; conditions: Sub-acute repeat dose toxicity; new zealand white; Oral; Gavage/Intubation; dose end: 4 day; group: systemic; systemic / in life observation / body weight / body weight + systemic / in life observation / food consumption / food consumption
[8] = system: rat; conditions: Subchronic oral toxicity in rodents, sprague dawley, Gavage/Intubation, dose end: 93 day, group: systemic
[9] = system: dog; conditions: Subchronic oral toxicity in nonrodent, beagle, Gavage/Intubation, dose end: 93 day, group: systemic
[10] = system: dog; conditions: Sub-acute repeat dose toxicity; beagle; Oral; Gavage/Intubation; dose end: 14 day; group: systemic; systemic / in life observation / clinical signs / emesis + systemic / in life observation / clinical signs / tremors + systemic / in life …
[11] = system: dog; conditions: Chronic toxicity, beagle, Oral, Capsule, dose end: 52 week, group: systemic
[12] = system: rat; conditions: Combined chronic toxicity/carcinogenicity, sprague dawley, Oral, Feed, dose end: 734 day, group: systemic
[13] = system: rat; conditions: Prenatal developmental toxicity study, sprague dawley, Oral, Feed, dose end: 20 GD
[14] = system: mouse; conditions: Carcinogenicity, cd1, Oral, Feed, dose end: 87 week, group: systemic
[15] = system: rat; conditions: Developmental neurotoxicity range-finding study; sprague dawley; Oral; Feed; dose end: 22 PND; group: cannot be grouped; systemic / in life observation / clinical signs / tremors
[16] = system: dog; conditions: Subchronic oral toxicity in nonrodent, beagle, Capsule, dose end: 13 week
[17] = system: rat; conditions: Subchronic oral toxicity in rodents, sprague dawley, Feed, dose end: 90 day, group: systemic
[18] = system: rat; conditions: Prenatal developmental toxicity study, sprague dawley, Oral, Gavage/Intubation, dose end: 15 GD
[19] = system: rat; conditions: Sub-acute repeat dose toxicity, sprague dawley, Oral, Feed, dose end: 28 day, group: systemic
[20] = system: rat; conditions: Sub-acute repeat dose toxicity, sprague dawley, Oral, Feed, dose end: 28 day, group: systemic; remark: listed apart in the source
[21] = system: dog; conditions: Chronic toxicity, beagle, Oral, Capsule, dose end: 1 year, group: systemic
[22] = system: rabbit; conditions: Prenatal developmental toxicity study, new zealand white, Oral, Gavage/Intubation, dose end: 29 GD
[23] = system: dog; conditions: Sub-acute repeat dose toxicity; beagle; Oral; Capsule; dose end: 28 day; group: systemic; systemic / pathology microscopic / heart / lesion(s) (nos)
[24] = system: rabbit; conditions: Prenatal developmental toxicity study; new zealand white; Oral; Feed; dose end: 29 GD; group: developmental; developmental / developmental malformation / bone / absent + developmental / developmental malformation / bone / incomplete ossification + …
[25] = systemic / in life observation / body weight / body weight + systemic / in life observation / clinical signs / erythema
[26] = systemic / in life observation / clinical signs / erythema
[27] = systemic / clinical chemistry / albumin-globulin ratio / albumin-globulin ratio + systemic / clinical chemistry / cholesterol / cholesterol…
[28] = systemic / in life observation / clinical signs / salivation + systemic / pathology microscopic / liver / vacuolization
[29] = systemic / in life observation / clinical signs / abnormal feces + systemic / in life observation / clinical signs / arrhythmia + systemic…
[30] = systemic / in life observation / clinical signs / salivation
[31] = systemic / in life observation / clinical signs / abnormal respiratory sounds + systemic / in life observation / clinical signs / salivation
[32] = systemic / organ weight / adrenal gland / absolute + systemic / in life observation / food consumption / food consumption + systemic / …
[33] = systemic / in life observation / clinical signs / abnormal feces + systemic / in life observation / clinical signs / salivation
[34] = systemic / in life observation / clinical signs / emesis + systemic / organ weight / adrenal gland / absolute + systemic / clinical …
[35] = systemic / in life observation / clinical signs / tremors
[36] = systemic / in life observation / clinical signs / tremors + systemic / hematology / erythrocyte (rbc) count differential / erythrocyte (rbc…
[37] = group: developmental, developmental / developmental malformation / bone / unossified
[38] = group: maternal, systemic / in life observation / body weight / body weight gain + systemic / in life observation / clinical signs / hypersensitivity + …
[39] = systemic / pathology microscopic / testes / degeneration
[40] = group: maternal, reproductive / reproductive performance / estrous cycle / abnormal
[41] = group: systemic, systemic / in life observation / clinical signs / tremors + systemic / in life observation / body weight / body weight gain + systemic / in …
[42] = group: developmental, developmental / developmental malformation / ureter / hydroureter
[43] = group: maternal, systemic / in life observation / clinical signs / tremors
[44] = systemic / in life observation / body weight / body weight + systemic / in life observation / body weight / body weight gain + systemic / in…
[45] = systemic / in life observation / body weight / body weight gain
[46] = systemic / pathology microscopic / heart / lesion(s) (nos) + systemic / pathology microscopic / heart / fibrosis
[47] = group: developmental, developmental / developmental malformation / bone / absent + developmental / developmental malformation / bone / incomplete ossification + …
[48] = group: maternal, reproductive / reproductive performance / aborted / aborted + reproductive / reproductive performance / resorptions / resorptions + systemic…

## COc1ccc(C(C)(C)C)cc1CN[C@H]1C2CCN(CC2)[C@H]1C(c1ccccc1)c1ccccc1
[1]; [25]
  LOAEL: > 150 mg/kg/day
  NOAEL: ≥ 150 mg/kg/day
[1]; [26]
  LEL: 5 mg/kg/day
  NEL: < 5 mg/kg/day
[2]; [27]
  LOAEL: > 100 mg/kg/day
  NOAEL: ≥ 100 mg/kg/day
[2]; [28]
  LEL: 30 mg/kg/day
  NEL: < 30 mg/kg/day
[3]
  LEL: 5 mg/kg/day
  LOAEL: > 20 mg/kg/day
  NEL: < 5 mg/kg/day
  NOAEL: ≥ 20 mg/kg/day
[4]
  LOAEL: > 500 mg/kg/day
  NEL: < 150 mg/kg/day
  NOAEL: ≥ 500 mg/kg/day
[5]
  LEL: 300 mg/kg/day
  LOAEL: > 300 mg/kg/day
  NEL: < 300 mg/kg/day
  NOAEL: ≥ 300 mg/kg/day
[6]; [29]
  LOAEL: > 20 mg/kg/day
  NOAEL: ≥ 20 mg/kg/day
[6]; [30]
  LEL: 5 mg/kg/day
  NEL: < 5 mg/kg/day
[7]
  LOAEL: > 150 mg/kg/day
  NEL: 30 mg/kg/day
  NOAEL: ≥ 150 mg/kg/day
[8]; [31]
  LEL: 5 mg/kg/day
  NEL: < 5 mg/kg/day
[8]; [32]
  LOAEL: > 150 mg/kg/day
  NOAEL: ≥ 150 mg/kg/day
[9]; [33]
  LEL: 1 mg/kg/day
  NEL: < 1 mg/kg/day
[9]; [34]
  LOAEL: > 20 mg/kg/day
  NOAEL: ≥ 20 mg/kg/day
[10]
  LEL: 20 mg/kg/day
  LOAEL: > 20 mg/kg/day
  NEL: < 20 mg/kg/day
  NOAEL: ≥ 20 mg/kg/day

## Cc1c(COC(=O)[C@@H]2[C@H](/C=C(\Cl)C(F)(F)F)C2(C)C)cccc1-c1ccccc1 [Bifenthrin]
[11]; [35]
  LOAEL: 3 mg/kg/day
[11]; systemic / in life observation / clinical signs / tremors + systemic / clinical chemistry / sodium / sodium
  LEL: 3 mg/kg/day
[11]; [36]
  NEL: 1.5 mg/kg/day
  NOAEL: 1.5 mg/kg/day
[12]; [35]
  LOAEL: 6.1 mg/kg/day
[12]; systemic / in life observation / clinical signs / tremors + systemic / in life observation / body weight / body weight + systemic / in life …
  NOAEL: 3 mg/kg/day
[12]; systemic / organ weight / kidney / relative to body weight + systemic / organ weight / liver / relative to body weight
  LEL: 4.7 mg/kg/day
[12]; systemic / organ weight / kidney / relative to body weight + systemic / organ weight / liver / relative to body weight + systemic / in life …
  NEL: 2.3 mg/kg/day
[13]; [37]
  LEL: 16.3 mg/kg/day
  LOAEL: > 16.3 mg/kg/day
  NEL: 7.4 mg/kg/day
  NOAEL: ≥ 16.3 mg/kg/day
[13]; [38]
  LEL: 16.3 mg/kg/day
  LOAEL: 16.3 mg/kg/day
  NEL: 7.4 mg/kg/day
  NOAEL: 7.4 mg/kg/day
[14]; [35]
  LOAEL: 25.6 mg/kg/day
[14]; systemic / in life observation / clinical signs / tremors + systemic / pathology microscopic / liver / adenoma/carcinoma combined + systemic…
  NOAEL: 6.7 mg/kg/day
[14]; [39]
  LEL: 6.7 mg/kg/day
  NEL: < 6.7 mg/kg/day
[15]
  LEL: 9.3 mg/kg/day
  LOAEL: > 9.3 mg/kg/day
  NEL: 7.4 mg/kg/day
  NOAEL: ≥ 9.3 mg/kg/day
[16]; [40]
  LEL: 10 mg/kg/day
  LOAEL: > 20 mg/kg/day
  NEL: 5 mg/kg/day
  NOAEL: ≥ 20 mg/kg/day
[16]; group: systemic, systemic / in life observation / clinical signs / tremors
  LOAEL: 5 mg/kg/day
[16]; [41]
  NEL: 2.5 mg/kg/day
  NOAEL: 2.5 mg/kg/day
[16]; group: systemic, systemic / in life observation / clinical signs / tremors + systemic / in life observation / clinical signs / ataxia
  LEL: 5 mg/kg/day
[17]; systemic / in life observation / body weight / body weight + systemic / in life observation / body weight / body weight gain
  NEL: 17.2 mg/kg/day
[17]; [35]
  LOAEL: 7.5 mg/kg/day
[17]; systemic / in life observation / clinical signs / tremors + systemic / clinical chemistry / potassium / potassium + systemic / clinical …
  NOAEL: 3.8 mg/kg/day
[18]; [42]
  LEL: 2 mg/kg/day
  LOAEL: 2 mg/kg/day
  NEL: 1 mg/kg/day
  NOAEL: 1 mg/kg/day
[18]; [43]
  LEL: 2 mg/kg/day
  LOAEL: 2 mg/kg/day
  NEL: 1 mg/kg/day
  NOAEL: 1 mg/kg/day

## Cn1cnc2c1c(=O)[nH]c(=O)n2C [Theobromine]
[19]; [44]
  LOAEL: > 912 mg/kg/day
  NOAEL: ≥ 912 mg/kg/day
[19]; systemic / in life observation / body weight / body weight + systemic / in life observation / food consumption / food consumption
  LEL: 389 mg/kg/day
[19]; systemic / in life observation / body weight / body weight + systemic / in life observation / food consumption / food consumption + systemic…
  NEL: 200 mg/kg/day
[20]; [44]
  LOAEL: > 492 mg/kg/day
  NOAEL: ≥ 492 mg/kg/day
[20]; [45]
  LEL: 94 mg/kg/day
  NEL: < 94 mg/kg/day
[21]; systemic / pathology microscopic / heart / lesion(s) (nos)
  LEL: 100 mg/kg/day
[21]; [46]
  LOAEL: > 150 mg/kg/day
  NOAEL: ≥ 150 mg/kg/day
[22]; group: developmental, developmental / developmental malformation / bone / absent + developmental / developmental malformation / bone / incomplete ossification
  LEL: 75 mg/kg/day
[22]; [47]
  LOAEL: > 200 mg/kg/day
  NEL: 25 mg/kg/day
  NOAEL: ≥ 200 mg/kg/day
[22]; [48]
  LOAEL: > 200 mg/kg/day
  NEL: 25 mg/kg/day
  NOAEL: ≥ 200 mg/kg/day
[22]; group: maternal, reproductive / reproductive performance / resorptions / resorptions + reproductive / offspring survival early / dead fetuses / dead fetuses
  LEL: 75 mg/kg/day
[23]
  LEL: 100 mg/kg/day
  LOAEL: > 150 mg/kg/day
  NEL: 75 mg/kg/day
  NOAEL: ≥ 150 mg/kg/day
[24]
  LEL: 41 mg/kg/day
  LOAEL: > 63 mg/kg/day
  NEL: 21 mg/kg/day
  NOAEL: ≥ 63 mg/kg/day
